“Also recorded” adds a separate entry of the source.
Tests used:
Tyrosinase = assay: Measurement of inhibition action against tyrosinase; type: biochemical
Method: Tyrosinase was purchased from Sigma Company. The enzyme was dissolved in […]. Sodium phosphate buffer (0.1 M, pH 6.0), a substrate of enzyme and adjusted 1.6 mg/ml of concentration to obtain an enzyme solution. Sample was dissolved in sodium phosphate buffer and the undissolved residue was filtered out. 0.7 ml of the buffer, 0.2 ml of sample and 0.1 ml (15.7 unit/ml) of the enzyme solution were mixed and after 60 seconds, absorbance was measured at 475 nm by spectrophotometer.
By the following equation, inhibition ratio(%) of tyrosinase was calculated.
Inhibition ratio(%) of tyrosinase=[1−(S−B)/C]×100
wherein, • S: Test tube having enzyme and sample, • B: Test tube having sample, • C: Test tube having enzyme.

Water solubility = type: physicochemical
liver spots of women = assay: Whitening effect of preparation composed of ranunculin, deoxypodophyllotoxin and SB365 on clinical trial; type: in vivo, human; details: concluded from compositions with and without SB365
Method: Pharmaceutical composition: 10 mg of ranunculin, 50 mg of deoxypodophyllotoxin, and 15 mg of SB365 were mixed well together with the base (19 g) to obtain pharmaceutical composition and the composition was rubbed on the area of liver spots three times a day till the time of curing.
A composition from which SB365 which was not effective on tyrosinase was deleted was used. The composition were administered to five women (F, G, H, I, K) having liver spots.

Structure (SMILES) | inhibition against tyrosinase (Tyrosinase; at 0.03 μg/ml) | inhibition of activity of tyrosinase (Tyrosinase; at 0.03/g/ml) | water solubility (Water solubility) | effect against tyrosinase (in words) (Tyrosinase) | whitening effect in clinical trials (liver spots of women)
COc1cc([C@@H]2c3cc4c(cc3C[C@H]3COC(=O)[C@@H]32)OCO4)cc(OC)c1OC [Deoxypodophyllotoxin] | 38% | 38% | very low and low |  | 
CC1OC(OC2C(O[C@H]3CC[C@@]4(C)C(CC[C@]5(C)C4CC=C4C6CC(C)(C)CC[C@]6(C(=O)O)CC[C@]45C)[C@]3(C)CO)OCC(OC3OC(CO)C(O)C(O)C3O)C2O)C(O)C(O)C1O (stereo partly drawn) [SB365, 3-O-α-L-ramnopyranosyl(1→2)-[β-D-glucopyranosyl(1→4)]-α-L-arabinopyranoside] |  |  |  | not effective; also recorded: did not inhibit; also recorded: no effect | have whitening effect; also recorded: excellent whitening effect

Reference: patent US20080124287A1, “Cosmetic composition having whitening effect comprising extract of pulsatilla radix as main ingredient” (priority 2002, published 2008)
